Experimental data taken from ChEMBL document CHEMBL5537115, “New broad-spectrum and potent antibacterial agents with dual-targeting mechanism: Promoting FtsZ polymerization and disrupting bacterial membranes” (Eur J Med Chem, 2024).
Converted amounts (≈) assume the structure as drawn.

Assays:
Assay type in all cases: functional
Acinetobacter baumannii [1] = assay: Antibacterial activity against Acinetobacter baumannii ATCC19606 incubated for 18 to 24 hrs; conditions: time 18-24 hrs
Staphylococcus aureus [2] = assay: Antibacterial activity against Staphylococcus aureus clinical isolate incubated for 18 to 24 hrs; conditions: time 18-24 hrs
Bacillus subtilis [3] = assay: Antibacterial activity against penicillin-susceptible Bacillus subtilis ATCC9372 incubated for 18 to 24 hrs; conditions: time 18-24 hrs
Staphylococcus aureus [4] = assay: Antibacterial activity against methicillin-resistant Staphylococcus aureus ATCC43300 incubated for 18 to 20 hrs; conditions: time 18-20 hrs
Staphylococcus aureus [5] = assay: Antibacterial activity against erythromycin-susceptible Staphylococcus aureus ATCC25923 incubated for 18 to 24 hrs; conditions: time 18-24 hrs
Streptococcus pyogenes [6] = assay: Antibacterial activity against erythromycin-resistant Streptococcus pyogenes 2 clinical isolate assessed as bacterial growth inhibition incubated for 20 hrs by CLSI based broth microdilution method
[7] = tested on: Staphylococcus epidermidis; assay: Antibacterial activity against penicillin-resistant Staphylococcus epidermidis clinical isolate assessed as bacterial growth inhibition incubated for 20 hrs by CLSI based broth microdilution method
Klebsiella pneumoniae = assay: Antibacterial activity against Klebsiella pneumoniae ATCC BAA-1902 assessed as bacterial growth inhibition incubated for 20 hrs by CLSI based broth microdilution method
Acinetobacter baumannii [8] = assay: Antibacterial activity against Acinetobacter baumannii ATCC19606 assessed as bacterial growth inhibition incubated for 20 hrs by CLSI based broth microdilution method
Escherichia coli [9] = assay: Antibacterial activity against wild-type Escherichia coli BW25113 assessed as bacterial growth inhibition incubated for 20 hrs by CLSI based broth microdilution method
Escherichia coli [10] = assay: Antibacterial activity against penicillin-susceptible Escherichia coli ATCC25922 assessed as bacterial growth inhibition incubated for 20 hrs by CLSI based broth microdilution method
Enterococcus faecium [11] = assay: Antibacterial activity against vancomycin-susceptible Enterococcus faecium ATCC19434 assessed as bacterial growth inhibition incubated for 20 hrs by CLSI based broth microdilution method
Streptococcus pyogenes [12] = assay: Antibacterial activity against erythromycin-susceptible Streptococcus pyogenes 1 assessed as bacterial growth inhibition incubated for 20 hrs by CLSI based broth microdilution method
Bacillus pumilus = assay: Antibacterial activity against penicillin-susceptible Bacillus pumilus CMCC63202 assessed as bacterial growth inhibition incubated for 20 hrs by CLSI based broth microdilution method
Bacillus subtilis [13] = assay: Antibacterial activity against penicillin-susceptible Bacillus subtilis ATCC9372 assessed as bacterial growth inhibition incubated for 20 hrs by CLSI based broth microdilution method
Enterococcus faecium [14] = assay: Antibacterial activity against vancomycin-resistant Enterococcus faecium ATCC51559 assessed as bacterial growth inhibition incubated for 20 hrs by CLSI based broth microdilution method
Staphylococcus aureus [15] = assay: Antibacterial activity against Staphylococcus aureus clinical isolate assessed as bacterial growth inhibition incubated for 20 hrs by CLSI based broth microdilution method
Staphylococcus aureus [16] = assay: Antibacterial activity against penicillin-resistant Staphylococcus aureus ATCC31007 assessed as bacterial growth inhibition incubated for 20 hrs by CLSI based broth microdilution method
Staphylococcus aureus [17] = assay: Antibacterial activity against methicillin-resistant Staphylococcus aureus ATCC43300 assessed as bacterial growth inhibition incubated for 20 hrs by CLSI based broth microdilution method
Enterococcus faecalis [18] = assay: Antibacterial activity against vancomycin-susceptible Enterococcus faecalis ATCC29212 assessed as bacterial growth inhibition incubated for 20 hrs by CLSI based broth microdilution method
Staphylococcus aureus [19] = assay: Antibacterial activity against erythromycin-susceptible Staphylococcus aureus ATCC25923 assessed as bacterial growth inhibition incubated for 20 hrs by CLSI based broth microdilution method
Enterococcus faecalis [20] = assay: Antibacterial activity against vancomycin-resistant Enterococcus faecalis ATCC51299 assessed as bacterial growth inhibition incubated for 20 hrs by CLSI based broth microdilution method

| SMILES | MIC (Streptococcus pyogenes [6]) [µg/mL] | MIC [7] [µg/mL] | MIC (Klebsiella pneumoniae) [µg/mL] | MIC (Acinetobacter baumannii [8]) [µg/mL] | MIC (Escherichia coli [9]) [µg/mL] | MIC (Escherichia coli [10]) [µg/mL] | MIC (Enterococcus faecium [11]) [µg/mL] | MIC (Streptococcus pyogenes [12]) [µg/mL] | MIC (Bacillus pumilus) [µg/mL] | MIC (Bacillus subtilis [13]) [µg/mL] | MIC (Enterococcus faecium [14]) [µg/mL] | MIC (Staphylococcus aureus [15]) [µg/mL] | MIC (Staphylococcus aureus [16]) [µg/mL] | MIC (Staphylococcus aureus [17]) [µg/mL] | MIC (Enterococcus faecalis [18]) [µg/mL] | MIC (Staphylococcus aureus [19]) [µg/mL] | MIC (Enterococcus faecalis [20]) [µg/mL] | also measured |
| --- | --- | --- | --- | --- | --- | --- | --- | --- | --- | --- | --- | --- | --- | --- | --- | --- | --- | --- |
| CC(=O)NC[C@H]1CN(c2ccc(N3CCOCC3)c(F)c2)C(=O)O1 [LINEZOLID] | 1 (≈ 2.96 µM) | 4 (≈ 11.9 µM) | > 64 | > 64 | > 64 | > 64 | 8 (≈ 23.7 µM) | 1 (≈ 2.96 µM) | 2 (≈ 5.93 µM) | 0.5 (≈ 1.48 µM) | 4 (≈ 11.9 µM) | – | – | – | – | – | – | MBC (Acinetobacter baumannii [1]): > 64 µg/mL; MBC (Staphylococcus aureus [2]): > 64 µg/mL; MBC (Bacillus subtilis [3]): 64 µg/mL (≈ 190 µM); MBC (Staphylococcus aureus [4]): 8 µg/mL (≈ 23.7 µM); MBC (Staphylococcus aureus [5]): > 64 µg/mL |
| C[n+]1cc(-c2ccccc2)c(/C=C/c2ccc(N3CCCC3)cc2)cc1-c1ccc2ccccc2c1.[I-] | 1 | 2 | 16 | 1 | 4 | 64 | 1 | 0.5 | 1 | 1 | 2 | 0.5 | 1 | 0.5 | 2 | 0.5 | 2 | – |
| Cc1ccccc1-c1c[n+](C)c(-c2ccc(C(C)(C)C)cc2)cc1/C=C/c1ccc(F)cc1.[I-] | 2 | 1 | 8 | 2 | 4 | 8 | 1 | 2 | 0.5 | 0.5 | 1 | 0.25 | 1 | 0.5 | 0.5 | 1 | 2 | – |
| COc1ccc2cc3[n+](cc2c1OC)CCc1cc2c(cc1-3)OCO2 [BERBERINE] | > 64 | > 64 | > 64 | > 64 | > 64 | > 64 | > 64 | > 64 | > 64 | > 64 | > 64 | 64 | > 64 | > 64 | > 64 | 64 | > 64 | – |
| CN(C)[C@@H]1C(O)=C(C(N)=O)C(=O)[C@@]2(O)C(O)=C3C(=O)c4c(O)cccc4[C@@](C)(O)[C@H]3C[C@@H]12 [TETRACYCLINE] | 64 (≈ 144 µM) | 32 (≈ 72 µM) | 32 (≈ 72 µM) | 8 (≈ 18 µM) | 2 (≈ 4.5 µM) | 0.5 (≈ 1.13 µM) | 2 (≈ 4.5 µM) | 1 (≈ 2.25 µM) | 64 (≈ 144 µM) | 0.5 (≈ 1.13 µM) | 2 (≈ 4.5 µM) | 1 (≈ 2.25 µM) | 64 (≈ 144 µM) | 0.5 (≈ 1.13 µM) | 64 (≈ 144 µM) | 0.5 (≈ 1.13 µM) | 2 (≈ 4.5 µM) | – |
| C[n+]1cc(-c2ccccc2)c(/C=C/c2ccc(C(C)(C)C)cc2)cc1-c1ccc2ccccc2c1.[I-] | 4 | 2 | 8 | 1 | 4 | 64 | 2 | 1 | 0.5 | 0.5 | 2 | 0.5 | 2 | 1 | 1 | 1 | 2 | – |
| C[n+]1cc(-c2ccccc2)c(/C=C/c2ccc(F)cc2)cc1-c1ccc(C(C)(C)C)cc1.[I-] | 4 | 2 | 8 | 4 | 8 | 8 | 2 | 2 | 1 | 1 | 2 | 1 | 1 | 1 | 2 | 1 | 2 | – |
| CCCCOc1ccc(/C=C/c2cc(-c3ccccc3)c[n+](C)c2-c2ccccc2)cc1.[I-] | 2 | 2 | 16 | 4 | 8 | 8 | 2 | 2 | 1 | 1 | 4 | 1 | 16 | 1 | 4 | 0.5 | 4 | – |
| CC(C)c1ccc(/C=C/c2cc(-c3ccc4ccccc4c3)[n+](C)cc2-c2ccccc2)cc1.[I-] | 4 | 2 | 16 | 2 | 8 | 64 | 2 | 0.5 | 0.5 | 0.5 | 2 | 0.5 | 2 | 0.5 | 2 | 0.5 | 4 | – |
| CN(C)c1ccc(/C=C/c2cc(-c3ccccc3)[n+](C)cc2-c2ccccc2)cc1.[I-] | 8 | 8 | > 64 | 8 | 64 | 32 | 16 | 8 | 8 | 1 | 16 | 1 | 8 | 2 | 16 | 0.5 | 16 | – |
| CCCCCCOc1ccc(/C=C/c2cc(-c3ccccc3)c[n+](C)c2-c2ccccc2)cc1.[I-] | 2 | 2 | > 64 | 2 | 4 | 8 | 2 | 2 | 0.5 | 2 | 2 | 1 | 2 | 1 | 2 | 0.25 | 1 | – |
| C[n+]1cc(-c2ccccc2)cc(/C=C/c2ccc(Cl)cc2)c1-c1ccccc1.[I-] | 4 | 8 | > 64 | 8 | > 64 | 64 | 16 | 4 | 8 | 4 | 16 | 2 | 16 | 4 | 16 | 2 | 16 | – |
| CCCCCOc1ccc(/C=C/c2cc(-c3ccccc3)c[n+](C)c2-c2ccccc2)cc1.[I-] | 2 | 1 | 8 | 2 | 4 | 4 | 2 | 2 | 1 | 0.5 | 2 | 1 | 1 | 1 | 2 | 0.25 | 2 | – |
| CCc1ccc(/C=C/c2cc(-c3ccccc3)c[n+](C)c2-c2ccccc2)cc1.[I-] | 8 | 16 | 16 | 32 | > 64 | > 64 | 16 | 4 | 8 | 4 | 16 | 2 | 4 | 8 | 16 | 1 | 16 | – |
| C[n+]1cc(-c2ccccc2)c(/C=C/c2ccc(N3CCCCC3)cc2)cc1-c1ccc2ccccc2c1.[I-] | 2 | 2 | 16 | 2 | 4 | 64 | 1 | 2 | 0.5 | 1 | 2 | 0.5 | 2 | 1 | 1 | 0.5 | 2 | – |
| NC(=O)c1c(F)ccc(OCc2nc3cc(Cl)cnc3s2)c1F | > 64 | > 64 | > 64 | > 64 | > 64 | > 64 | > 64 | > 64 | 0.5 (≈ 1.41 µM) | 0.5 (≈ 1.41 µM) | > 64 | 1 (≈ 2.81 µM) | 2 (≈ 5.62 µM) | 1 (≈ 2.81 µM) | > 64 | 1 (≈ 2.81 µM) | > 64 | – |
